# Entries after “also recorded” stand apart in the source; their conditions may differ. Like-named read-outs stand apart in the source and are kept apart here.
# Experiments:
# [1] = tested on: herpes simplex virus, type-1 and 2 (HSV-1 and -2); conditions: cited from earlier work
# [2] = tested on: HCMV; test: Activity against HCMV in tissue culture (NHDF cell line); format: cell-based
# Excerpt: The title compound was synthesized using N^4-benzoyl HPMPC diethyl ester tritylated at the hydroxyl group as a starting material. The starting material was detritylated using acetic acid and then converted to N^4-benzoyl HPMPC using TMSBr. The resulting compound was converted to N^4-benzoyl cHPMPC using DCC and morpholine in pyridine.
# [3] = tested on: human cytomegalovirus (HCMV); conditions: cited from earlier work
# [4] = tested on: HSV-2 (strain 414-92); test: Antiviral activity against HSV-2 (strain 414-92) in MA 104 cells, crystal violet readout; format: cell-based; conditions: HSV-2 strain 414-92, MA 104 cells, three days; concentration that inhibits virus-mediated cell killing by 50%
# Procedure: Compounds were individually tested for activity against HSV-1 and/or HSV-2. HSV-2 (strain 414-92) was tested using MA 104 cells in the following assay protocol. 96-Well plates were seeded with 1×10^4 MA 104 cells per well using 200 μL minimal essential medium (MEM) containing 10% calf serum per well, and incubated overnight at 37° C. The compounds were dissolved in MEM Earle's Salts without serum. The medium was removed by-aspiration and 100 μL MEM Earle's Salts without serum was added to the wells. Serial 3-fold dilutions of the compounds were prepared by serial transfer of 50 μL of medium from wells containing compound to wells lacking compound. The plates were incubated 15 minutes at 37° C. followed by addition of 100 PFU/well of virus in MEM Earle's Salts with 2% fetal bovine serum. The plates were then incubated at 37° C. for three days until approximately 90% of the cells in virus infected control wells containing no compound were killed. Following incubation, medium was aspirated and the wells were washed with sterile PBS. 100 μL 0.5% crystal violet in 20% methanol was then added to the wells for 5 minutes, aspirated and the wells were washed two or three times with distilled water. 200 μL of 0.01 N HCl was added to the wells and the absorbance of each well at 595 nm was determined. The results, shown in Table 6, were expressed as the IC50, the concentration (μM) that inhibits cell killing mediated by HSV-2 by 50%. […] The toxicity of the compounds were expressed as the CC50, the concentration that kills 50% of uninfected cells.
# [5] = tested on: uninfected cells (MA 104 cells); test: Toxicity of the compounds to uninfected cells (CC50); format: cell-based; conditions: concentration that kills 50% of uninfected cells
# Procedure: Compounds were individually tested for activity against HSV-1 and/or HSV-2. HSV-2 (strain 414-92) was tested using MA 104 cells in the following assay protocol. 96-Well plates were seeded with 1×10^4 MA 104 cells per well using 200 μL minimal essential medium (MEM) containing 10% calf serum per well, and incubated overnight at 37° C. The compounds were dissolved in MEM Earle's Salts without serum. The medium was removed by-aspiration and 100 μL MEM Earle's Salts without serum was added to the wells. Serial 3-fold dilutions of the compounds were prepared by serial transfer of 50 μL of medium from wells containing compound to wells lacking compound. The plates were incubated 15 minutes at 37° C. followed by addition of 100 PFU/well of virus in MEM Earle's Salts with 2% fetal bovine serum. The plates were then incubated at 37° C. for three days until approximately 90% of the cells in virus infected control wells containing no compound were killed. Following incubation, medium was aspirated and the wells were washed with sterile PBS. 100 μL 0.5% crystal violet in 20% methanol was then added to the wells for 5 minutes, aspirated and the wells were washed two or three times with distilled water. 200 μL of 0.01 N HCl was added to the wells and the absorbance of each well at 595 nm was determined. […]
# [6] = tested on: human immunodeficiency virus (HIV); conditions: cited from earlier work
# [7] = tested on: varicella zoster virus (VZV); conditions: cited from earlier work
# [8] = tested on: intraperitoneal P388 leukemia; conditions: murine tumor model; cited from earlier work
# [9] = tested on: adenovirus; conditions: cited from earlier work
# [10] = tested on: vaccinia virus; conditions: cited from earlier work
# [11] = tested on: herpes simplex virus type 1; conditions: mice and rabbits in vivo, including herpetic keratitis caused by a TK- mutant; cited from earlier work
# [12] = tested on: broad-spectrum of DNA viruses; conditions: HSV-1 and 2, VZV, TK- HSV, HCMV, SeHV, SHV-1, BHV-1, EHV-1, ASF virus, vaccinia virus, adenoviruses, MSV; cited from earlier work
# [13] = tested on: HSV II; test: Inhibition of cytopathic effects by HSV II in MA 104 cells, XTT readout; format: cell-based; conditions: CPE determined with XTT
# [14] = tested on: MA 104 cells; test: CC50 in the HSV II / MA 104 XTT assay; format: cell-based
# [15] = Oral bioavailability in monkeys
# [16] = Incubation in rat intestinal wash; format: in vitro ADME; conditions: both phosphorus isomers
# Excerpt: (§1) The cHFMPC pivaloyloxymethyl ester synthesis yields a scalemic mixture at the phosphorus atom. The mixture was separated by HIPLC into the two isomers which were then exposed to an rat intestinal homogenate or to a rat intestinal wash.
# [17] = Incubation in rat intestinal homogenate; format: in vitro ADME; conditions: two phosphorus isomers separated by HPLC (one isomer / the other isomer)
# Excerpt: as §1
# [18] = tested on: KOS strain of HSV-1; test: Antiviral activity against KOS strain of HSV-1 in VERO cells; format: cell-based; conditions: KOS strain of HSV-1, VERO cells; concentration that inhibits virus-mediated cell killing by 50%
# [19] = tested on: Rauscher murine leukemia virus (R-MuLV); conditions: in vitro; cited from earlier work
# [20] = tested on: murine cytomegalovirus (MCMV); conditions: cited from earlier work
# [21] = tested on: R-MuLV; conditions: treatment of R-MuLV in mice; cited from earlier work
# [22] = tested on: HSV 1; conditions: in vivo, HSV 1 infection in mice; cited from earlier work
# [23] = tested on: herpes viruses; conditions: in vitro; cited from earlier work
# [24] = tested on: B16 melanoma; conditions: murine tumor model; cited from earlier work
smiles,measurement,setting,value
"Nc1ccn(CC(CO)OCP(=O)(O)O)c(=O)n1 (stereo not drawn) [HPMPC, 1-(2-phosphonomethoxy-3-hydroxypropyl)-cytosine]",activity against HSV-1 and -2,[1],active
same,IC50,[2]; Human betaherpesvirus 5,0.4 µM
same,activity against HCMV,[3],active
"CC(NP(=O)(COCCn1cnc2c(N)ncnc21)NC(C)C(=O)OCc1ccccc1)C(=O)OCc1ccccc1 (stereo not drawn) [Ex 1, bis(alanyl benzyl ester)PMEA]",IC50,[4],20 µM
same,CC50,[5],> 100 µM
"Nc1ncnc2c1ncn2CCOCP(=O)(NCC(=O)OCc1ccccc1)NCC(=O)OCc1ccccc1 [Ex 4, bis(glycyl benzyl ester)PMEA]",IC50,[4],60 µM
same,CC50,[5],> 100 µM
Nc1ncc2ncn(CCOCP(=O)(O)O)c2n1 [PMEMAP],activity against HIV,[6],active
Nc1nc(N)c2ncn(C[C@@H](CO)OCP(=O)(O)O)c2n1 [(S)-HPMPDAP],activity against HSV-1 and -2,[1],active
Nc1nc(N)c2ncn(CCOCP(=O)(O)O)c2n1 [PMEDAP],activity against HSV-1 and -2,[1],active
same,activity against HIV,[6],active
Nc1ncnc2c1ncn2C[C@@H](CO)OCP(=O)(O)O [(S)-HPMPA],activity against VZV,[7],active
same,antitumor activity against P388 leukemia,[8],active
same,activity against HSV-1 and -2,[1],active
same,activity against adenovirus,[9],active
same,activity against vaccinia virus,[10],active
same,efficacy against local and systemic HSV-1 infections,[11],effective
same,activity against a broad-spectrum of DNA viruses,[12],potent and selective activity
Nc1ncnc2c1ncn2C[C@H]1COP(=O)(O)CO1 [(S)-cyclic HPMPA],activity against VZV,[7],active
same,activity against HSV-1 and -2,[1],active
same,activity against adenovirus,[9],active
same,activity against vaccinia virus,[10],active
O=C(Nc1ccn(C[C@H]2COP(=O)(O)CO2)c(=O)n1)c1ccccc1 [N^4-benzoyl cHPMPC],IC50,[2],22 µM
"CC(C)(C)C(=O)OCOP(=O)(COCCn1cnc2c(N)ncnc21)OCOC(=O)C(C)(C)C [bis(POM)PMEA, bis(pivaloyloxymethyl)-9-(2-phosphonylmethoxyethyl)adenine]",IC50,[13],0.5 µM
same,CC50,[14],> 10 µM
same,oral bioavailability,[15],about 25%
CC(C)(C)C(=O)OCOP1(=O)CO[C@@H](Cn2ccc(N)nc2=O)CO1 (stereo partly drawn) [cHFMPC pivaloyloxymethyl ester],metabolic fate after incubation in intestinal wash,[16],converted to HPMPC pivaloyloxymethyl monoester
same,metabolic fate after incubation in intestinal homogenate,[17],converted to cHPMPC; also recorded: converted to HPMPC pivaloyloxymethyl monoester
Nc1nc2c(ncn2C[C@@H](CO)OCP(=O)(O)O)c(=O)[nH]1 [(S)-HFMPG],activity against HSV-1 and -2,[1],active
"Nc1ncnc2c1ncn2CCOCP(=O)(O)O [PMEA, 9-(2-phosphonylmethoxyethyl)adenine]",EC50,[18],138 µM
same,activity against R-MuLV,[19],active
same,antiviral effect in vivo against MCMV,[20],significant antiviral effect
same,antitumor activity against P388 leukemia,[8],active
same,IC50,[4],21 µM
same,activity against HSV-1 and -2,[1],active
same,IC50,[13],19.3 µM
same,activity against HCMV,[3],activity
same,CC50,"[14]; MA 104 cells, XTT assay of Example 4, read-out: CC50",2000 µM
same,potency in vivo compared with AZT,[21],more potent
same,activity against HIV,[6],active
Nc1nc2c(ncn2CCOCP(=O)(O)O)c(=O)[nH]1 [PMEG],antitumor activity against P388 leukemia,[8],active
same,activity against HSV-1 and -2,[1],active
same,potency relative to acyclovir,[22],> 50 fold
same,activity against herpes viruses,[23],active
same,antitumor activity against B16 melanoma,[24],active
